The values that follow come from PMC8102479, “Structural and mechanistic insights into the bifunctional HISN2 enzyme catalyzing the second and third steps of histidine biosynthesis in plants” (Scientific Reports, 2021).

Bounds are passed on as bounds.

Assay [1] concerns the target T1, MtHISN2 (Medicago truncatula, UniProt A0A072U2X9).
T1 construct: gene MTR_7g084480; N-truncated at Val49 (chloroplast transit peptide removed), residues 49-283, N-terminal Ser-Asn-Ala linker left, His6-tag cleaved with TEV; E. coli BL21 Gold; both PRA-CH and PRA-PH domains
Put plainly: ProFAR formation monitored at […] nm. Type of assay: biochemical.

The target of assay [2] is T2, MtHISN2 (Medicago truncatula, UniProt A0A072U2X9, H143E).
T2 construct: gene MTR_7g084480; N-truncated at Val49 (chloroplast transit peptide removed), residues 49-283, N-terminal Ser-Asn-Ala linker left, His6-tag cleaved with TEV; E. coli BL21 Gold; both PRA-CH and PRA-PH domains
T2 sequence (A0A072U2X9 entry or part of it H143E): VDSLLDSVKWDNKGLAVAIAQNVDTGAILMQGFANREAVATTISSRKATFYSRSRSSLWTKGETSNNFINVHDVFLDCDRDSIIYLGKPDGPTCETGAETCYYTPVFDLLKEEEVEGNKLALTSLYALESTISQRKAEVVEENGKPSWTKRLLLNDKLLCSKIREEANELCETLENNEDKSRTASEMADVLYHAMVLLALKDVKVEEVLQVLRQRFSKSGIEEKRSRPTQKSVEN
Briefly: isothermal titration calorimetry. Type of assay: binding. Background: ITC needs no label: the signal is the heat of the interaction.

In assay [3] the target is T3, MtHISN2 (Medicago truncatula, UniProt A0A072U2X9, K109A).
T3 construct: gene MTR_7g084480; N-truncated at Val49 (chloroplast transit peptide removed), residues 49-283, N-terminal Ser-Asn-Ala linker left, His6-tag cleaved with TEV; E. coli BL21 Gold; both PRA-CH and PRA-PH domains
T3 sequence (A0A072U2X9 entry or part of it K109A): as the sequence (A0A072U2X9 entry or part of it H143E) above, with K61A, E95H counted along it
Briefly: isothermal titration calorimetry. Format: binding. From the text:
(§1) isothermal titration calorimetry on MtHISN2 | Four mutants within the PRA-CH domain (K109A, T112V, S113A, and H143E)

Assay [4] addresses T4, MtHISN2 (Medicago truncatula, UniProt A0A072U2X9, S113A).
T4 construct: gene MTR_7g084480; N-truncated at Val49 (chloroplast transit peptide removed), residues 49-283, N-terminal Ser-Asn-Ala linker left, His6-tag cleaved with TEV; E. coli BL21 Gold; both PRA-CH and PRA-PH domains
Put plainly: isothermal titration calorimetry. Format: binding.
Text: as §1

Assay [5] addresses T5, MtHISN2 (Medicago truncatula, UniProt A0A072U2X9, T112V).
T5 construct: gene MTR_7g084480; N-truncated at Val49 (chloroplast transit peptide removed), residues 49-283, N-terminal Ser-Asn-Ala linker left, His6-tag cleaved with TEV; E. coli BL21 Gold; both PRA-CH and PRA-PH domains
Put plainly: isothermal titration calorimetry. Type of assay: binding.
Text: as §1

Assay [6] concerns the target T1, MtHISN2. Briefly: isothermal titration calorimetry. Format: binding.
The target of assay [7] is T6, MtHISN2 (Medicago truncatula, UniProt A0A072U2X9, Y240T).
T6 construct: gene MTR_7g084480; N-truncated at Val49 (chloroplast transit peptide removed), residues 49-283, N-terminal Ser-Asn-Ala linker left, His6-tag cleaved with TEV; E. coli BL21 Gold; both PRA-CH and PRA-PH domains
T6 sequence (A0A072U2X9 entry or part of it Y240T): as the sequence (A0A072U2X9 entry or part of it H143E) above, with E95H, Y192T counted along it
Put plainly: isothermal titration calorimetry. Format: binding. As for the experimental part:
(§2) isothermal titration calorimetry on MtHISN2 | three within the PRA-PH domain (R183E, T197V, and Y240T) were tested

In assay [8] the target is T7, MtHISN2 (Medicago truncatula, UniProt A0A072U2X9, R183E).
T7 construct: gene MTR_7g084480; N-truncated at Val49 (chloroplast transit peptide removed), residues 49-283, N-terminal Ser-Asn-Ala linker left, His6-tag cleaved with TEV; E. coli BL21 Gold; both PRA-CH and PRA-PH domains
T7 sequence (A0A072U2X9 entry or part of it R183E): as the sequence (A0A072U2X9 entry or part of it H143E) above, with E95H, R135E counted along it
Put plainly: isothermal titration calorimetry. Type of assay: binding. How it is done:
as §2

Assay [9] deals with T8, MtHISN2 (Medicago truncatula, UniProt A0A072U2X9, T197V).
T8 construct: gene MTR_7g084480; N-truncated at Val49 (chloroplast transit peptide removed), residues 49-283, N-terminal Ser-Asn-Ala linker left, His6-tag cleaved with TEV; E. coli BL21 Gold; both PRA-CH and PRA-PH domains
T8 sequence (A0A072U2X9 entry or part of it T197V): as the sequence (A0A072U2X9 entry or part of it H143E) above, with E95H, T149V counted along it
Briefly: isothermal titration calorimetry. Format: binding. How it is done: as §2

For assay [10], the target named is HISN2 enzyme from Medicago truncatula (MtHISN2), construct N-truncated at Val49 (Medicago truncatula). Put plainly: SEC; HiLoad Superdex 200 16/60; 25 mM Hepes-NaOH pH 7.5, 100 mM KCl, 50 mM NaCl, 100 uM ZnCl2, 1 mM TCEP; elution profile not shown.

T1 sequence (A0A072U2X9 entry or part of it): as the sequence (A0A072U2X9 entry or part of it H143E) above, with E95H counted along it
T4 sequence (A0A072U2X9 entry or part of it S113A): as the sequence (A0A072U2X9 entry or part of it H143E) above, with S65A, E95H counted along it
T5 sequence (A0A072U2X9 entry or part of it T112V): as the sequence (A0A072U2X9 entry or part of it H143E) above, with T64V, E95H counted along it

A word on the inhibition: it is the drop in the measured response relative to a control, in per cent. The term Kd denotes the constant that tells how readily two partners part at equilibrium. Low values mean higher affinity, high ones lower affinity. On to `Nc1ncnc2c1ncn2[C@@H]1O[C@H](COP(=O)(O)O)[C@@H](O)[C@H]1O` [AMP], for which, at MtHISN2 [1], the inhibition at 100 µM is > 60%. Moreover, the Kd at MtHISN2 [2] stood at 68 µM; on MtHISN2 [3], 71 ± 18 µM; on MtHISN2 [4], 64 ± 12 µM; on MtHISN2 [5] it was 75 ± 8 µM; at MtHISN2 [6] it was 47 ± 6 µM; on MtHISN2 [7], 52 ± 9 µM. The equilibrium dissociation constant (Kd) at MtHISN2 [8] turned out to be 31 ± 3 µM; at MtHISN2 [9] it was 29 ± 3 µM.
One may read the stoichiometry N as a count of units in the complex or per binding partner. In assay [10], “HISN2 enzyme from Medicago truncatula (MtHISN2), construct N-truncated at Val49” registered a stoichiometry N of 2.
